Test results: patent publication US11578130B2, “Regulatable chimeric antigen receptor” (Novartis AG, priority 2013, dated 2023)
Read-outs that look alike come from different tables or passages of the source.

How the values were obtained:
[1] = Clinical trial in elderly volunteers: adverse events, safety and tolerability; format: in vivo, human
[2] = test system: H1N1 A/California/07/2009; assay: Clinical trial: hemagglutination inhibition titers and seroconversion, vaccine strain A/H1N1; format: in vivo, human
Description: The trial was observer-blind because the placebo in the RAD001 0.5 mg daily and 20 mg weekly cohorts differed slightly from the RAD001 tablets in those cohorts. […] The treatment duration for all cohorts was 6 weeks during which time subjects underwent safety evaluations in the clinic every 2 weeks. After subjects had been dosed for 4 weeks, RAD001 steady state levels were measured pre-dose and at one hour post dose. After completing the 6 week course of study drug, subjects were given a 2 week drug free break to reverse any possible RAD001-induced immunosuppression, and then were given a 2012 seasonal influenza vaccination (Agrippal®, Novartis Vaccines and Diagnostics, Siena, Italy) containing the strains H1N1 A/California/07/2009, H3N2 A/Victoria/210/2009, B/Brisbane/60/2008. Four weeks after influenza vaccination, subjects had serum collected for influenza titer measurements. Antibody titers to the 3 influenza vaccine strains as well as to 2 heterologous strains (A/H1N1 strain A/New Jersey/8/76 and A/H3N2 strain A/Victoria/361/11) were measured by standard hemagglutination inhibition assay (Kendal, A P et al. (1982) Concepts and procedures for laboratory-based influenza surveillance. Atlanta: Centers for Disease Control and Prevention B17-B35).
The ability of RAD001 to improve immune function in elderly volunteers was evaluated by measuring the serologic response to the 2012 seasonal influenza vaccine. The hemagglutination inhibition (HI) geometric mean titers (GMT) to each of the 3 influenza vaccine strains at baseline and 4 weeks after influenza vaccination are provided in Table 22. The primary analysis variable was the HI GMT ratio (4 weeks post vaccination/baseline). […] This endpoint was chosen because a 1.2-fold increase in the influenza GMT ratio induced by the MF-59 vaccine adjuvant was associated with a decrease in influenza illness (Iob, A et al. (2005) Epidemiol Infect 133:687-693).
Rates of seroconversion 4 weeks after influenza vaccination were also evaluated. Seroconversion was defined as the change from a negative pre-vaccination titer (i.e., HI titer <1:10) to post-vaccination HI titer ≥1:40 or at least 4-fold increase from a non-negative (≥1:10) pre-vaccination HI titer.

[3] = test system: A/H1N1 strain A/New Jersey/8/76; format: in vivo, human
[4] = test system: A/H1N1/California/07/2009; assay: Clinical trial: serum IgG and IgM specific for A/H1N1/California/07/2009; format: in vivo, human; conditions: RAD001 versus placebo treated cohorts
Description: Levels of IgG and IgM specific for the A/H1N1/California/07/2009 were measured in serum samples taken before and 4 weeks after influenza vaccination as described previously (Spensieri, F. et al. (2013) Proc. Natl. Acad. Sci. USA 110:14330-14335). Results were expressed as fluorescence intensity.

[5] = Clinical trial: RAD001 trough levels in blood; format: in vivo, human
[6] = cited from earlier work

## CO[C@H]1C[C@@H]2CC[C@@H](C)[C@@](O)(O2)C(=O)C(=O)N2CCCC[C@H]2C(=O)O[C@H]([C@H](C)C[C@@H]2CC[C@@H](OCCO)[C@H](OC)C2)CC(=O)[C@H](C)/C=C(\C)[C@@H](O)[C@@H](OC)C(=O)[C@H](C)C[C@H](C)/C=C/C=C/C=C/1C [RAD001, (1R,9S,12S,15R,16E,18R,19R,21R,23S,24E,26E,28E,30S,32S,35R)-1,18-dihydroxy-12-{(1R)-2-[(1S,3R,4R)-4-(2-hydroxyethoxy)-3-methoxycyclohexyl]-1-methylethyl}-19,30-dimethoxy-15,17,21,23,29,35-hexamethyl-11,36-dioxa-4-aza-tricyclo[30.3.1.04,9]hexatriaconta-16,24,26,28-tetraene-2,3,10,14,20-pentaone]
[1]; RAD001 5 mg weekly, N = 53
  Urinary tract infection, treatment-related AE: 0 n (%)
[1]; RAD001 20 mg weekly, N = 53
  Blood cholesterol increased, treatment-related AE: 2 (3.8%) n (%)
  Conjunctivitis, treatment-related AE: 0 n (%)
  Diarrhea, treatment-related AE: 1 (1.9%) n (%)
  Dry mouth, treatment-related AE: 2 (3.8%) n (%)
  Dyspepsia, treatment-related AE: 2 (3.8%) n (%)
  Erythema, treatment-related AE: 0 n (%)
  Fatigue, treatment-related AE: 4 (7.5%) n (%)
  Headache, treatment-related AE: 9 (17.0%) n (%)
  Insomnia, treatment-related AE: 1 (1.9%) n (%)
  Limb discomfort, treatment-related AE: 0 n (%)
  Low density lipoprotein increased, treatment-related AE: 2 (3.8%) n (%)
  Mouth ulceration, treatment-related AE: 9 (17.0%) n (%)
  Mucosal inflammation, treatment-related AE: 2 (3.8%) n (%)
  Neutropenia, treatment-related AE: 3 (5.7%) n (%)
  Oral pain, treatment-related AE: 1 (1.9%) n (%)
  Paresthesia oral, treatment-related AE: 0 n (%)
  Patients with AE(s), treatment-related: 27 (50.9%) n (%)
  Pruritus, treatment-related AE: 1 (1.9%) n (%)
  Stomatitis, treatment-related AE: 2 (3.8%) n (%)
  Thrombocytopenia, treatment-related AE: 2 (3.8%) n (%)
  Tongue ulceration, treatment-related AE: 0 n (%)
  Total AE(s), treatment-related: 109 n (%)
  Urinary tract infection, treatment-related AE: 2 (3.8%) n (%)
[1]; elderly volunteers, 6 weeks, particularly 0.5 mg daily and 5 mg weekly dosing regimens
  tolerability: well tolerated
[1]; subject treated with 20 mg weekly RAD001
  number of severe AEs assessed as related to RAD001 (mouth ulcers): one
[2]; Baseline (2 weeks prior to influenza vaccination), RAD001 0.5 mg daily, N = 50
  HI GMT, A/H1N1: 102.8
[2]; Baseline (2 weeks prior to influenza vaccination), RAD001 5 mg weekly, N = 49
  HI GMT, A/H1N1: 84.2
[2]; Baseline (2 weeks prior to influenza vaccination), RAD001 20 mg weekly, N = 49
  HI GMT, A/H1N1: 90.1
[2]; Intention to Treat Population, 0.5 mg, N = 48
  Percent of subjects with seroconversion to influenza 4 weeks after vaccination, H1N1: 27%
[2]; Intention to Treat Population, 5 mg, N = 49
  Percent of subjects with seroconversion to influenza 4 weeks after vaccination, H1N1: 27%
[2]; Intention to Treat Population, 20 mg, N = 48
  Percent of subjects with seroconversion to influenza 4 weeks after vaccination, H1N1: 17%
[2]; RAD001 0.5 mg daily, N = 50
  GMT ratio (week 4 post vaccination/baseline), A/H1N1: 2.6
[2]; RAD001 5 mg weekly, N = 49
  GMT ratio (week 4 post vaccination/baseline), A/H1N1: 2.5
[2]; RAD001 20 mg weekly, N = 49
  GMT ratio (week 4 post vaccination/baseline), A/H1N1: 1.8
[2]; Subjects with Baseline Titers <=40, 0.5 mg
  Percent of subjects with seroconversion to influenza 4 weeks after vaccination, H1N1: 42%
[2]; Subjects with Baseline Titers <=40, 5 mg
  Percent of subjects with seroconversion to influenza 4 weeks after vaccination, H1N1: 45%
[2]; Subjects with Baseline Titers <=40, 20 mg
  Percent of subjects with seroconversion to influenza 4 weeks after vaccination, H1N1: 36%
[2]; Week 4 after influenza vaccination, RAD001 0.5 mg daily, N = 50
  HI GMT, A/H1N1: 190.2
[2]; Week 4 after influenza vaccination, RAD001 5 mg weekly, N = 49
  HI GMT, A/H1N1: 198.73
[2]; Week 4 after influenza vaccination, RAD001 20 mg weekly, N = 49
  HI GMT, A/H1N1: 129.7
[3]; RAD001 5 mg weekly
  Percentage of subjects who seroconvert to heterologous strain 4 weeks after seasonal influenza vaccination, A/H1N1 strain: A/New Jersey/8/76: 16%
[3]; RAD001 20 mg weekly
  Percentage of subjects who seroconvert to heterologous strain 4 weeks after seasonal influenza vaccination, A/H1N1 strain: A/New Jersey/8/76: 8%
[3]; RAD001 as compared to placebo cohorts
  increase in the HI GMT ratios for the heterologous strain: higher
[4]
  post-vaccination anti-influenza IgM and IgG levels: did not differ
[5]; 5 mg weekly, 0.3 ng/ml is the lower limit of quantification
  average RAD001 trough level: below detection limits
[5]; dosing regimens used in the immunization study
  trough level of study regimens relative to approved regimens, fold lower: 3-20 fold
[6]; 10 mg daily oncology dosing regimen
  trough level of RAD001: approximately 20 ng/ml
[6]; 0.75-1.5 mg bid transplant dosing regimen
  trough level of RAD001: approximately 3 ng/ml
